According to patent publication US20040229816A1, “Anti-angiogenic and anti-tumoral properties of beta and gamma secretase inhibitors” (priority 2003, published 2004):
“Also recorded” adds a separate entry of the source. Where two headings read alike, the source gives them in different places. Peptide text beside a SMILES is read from it. * marks the point of attachment. Cbz = O=C(OCc1ccccc1)*

Experiments:
APP [1] = test: carboxyl-terminal APP fragments in human brain endothelial cell lysates (immunoblotting); assay type: cell-based; settings: 5 μM, 24 hours
Description: (§1) Confluent human brain endothelial cells (grown on 75 cm2 flasks with EBM 4% FBS medium) were treated for 24 hours with 5 μM of Z-VVL-CHO, 5 μM of L-685,458, 5 μM of OM99-2, 5 AM of DAPT or went untreated (control). Experiments were done in quadriplicate for each treatment condition. 6E10 (Signet), a mAb that recognizes residues 1-17 of human Aβ (Van Nostrand et al., Nature, 341, 546-549, 1989) was used to immunoprecipitate soluble APP generated following cleavage by α-secretase from cell culture medium. Immunoprecipitated material was resolved on a 4-20% gradient SDS-PAGE, transferred to PVDF membranes and immunodetected with mAb 22C11 (Roche Diagnostics) that recognizes the amino acids 66-81 of the N-terminal portion of APP (Hibich, C., J. Biol. Chem., 268, 26571-26577, 1993). Human brain endothelial cells were lysed on ice using MPERTM reagent (Pierce) supplemented with 1 mM PMSF and 1 mM of sodium-orthovanadate. Samples were sonicated and centrifuged at 10,000 g for 30 min at 4° C. The protein content of the lysates was determined using the BCA Protein assay kit (Pierce). Total lysates ([…] of protein/sample) were separated on a 4-20% gradient SDS-PAGE and transferred to PVDF membranes and immunoprobed with mAb 22C11 in order to detect full length APP and also immunoprobed with an Anti-APP-CT20 (Calbiochem) antibody which recognizes the amino acid residues 751-770 of the carboxyl terminal region of APP (Pinnix et al. 2001; J. Biol. Chem., 276, 481).

[2] = tested on: U-87 MG brain tumor cells; test: proliferation of U-87 MG brain tumor cells; assay type: cell-based, human
[3] = tested on: Human middle cerebral artery endothelial cells; test: capillary morphogenesis assay; assay type: cell-based
Description: Two hundred μl of Matrigel were placed into each well of a 24-well culture plate at 4° C. and allowed to polymerize by incubation at 37° C. Human middle cerebral artery endothelial cells (5×104) were seeded on the Matrigel in 1 ml of EBM containing 4% fetal calf serum. The cells were incubated at 37° C. for 20 hours in a humidified 5% CO2 atmosphere in the presence or absence of various doses of γ-secretase and β-secretase inhibitors as indicated in the figure legends. The experiments were performed in quadruplicate for each treatment condition. For each culture, 2 randomly chosen fields were photographed using a 4×objective. An experimenter unaware of the different treatments measured the total length of tube structures in each photograph using the Image Pro Plus software (Media Cybernetic, Inc., Md.). Capillary network lengths for the different treatment conditions were expressed as the percentage of capillary network lengths obtained in the control condition.

APP [4] = test: α-sAPP secretion by human brain endothelial cells (immunoprecipitation, immunoblotting); assay type: cell-based; settings: 5 μM, 24 hours
Description: as §1

β-secretase = target: T1, β-secretase (Cricetulus griseus, UniProt G3IAK4); settings: Chinese hamster ovary cells, wild-type APP751, cited from earlier work
T1 construct: endogenous in cells; host or cells: Chinese hamster ovary cells stably transfected with wild-type APP751
T1 sequence (G3IAK4 22-501): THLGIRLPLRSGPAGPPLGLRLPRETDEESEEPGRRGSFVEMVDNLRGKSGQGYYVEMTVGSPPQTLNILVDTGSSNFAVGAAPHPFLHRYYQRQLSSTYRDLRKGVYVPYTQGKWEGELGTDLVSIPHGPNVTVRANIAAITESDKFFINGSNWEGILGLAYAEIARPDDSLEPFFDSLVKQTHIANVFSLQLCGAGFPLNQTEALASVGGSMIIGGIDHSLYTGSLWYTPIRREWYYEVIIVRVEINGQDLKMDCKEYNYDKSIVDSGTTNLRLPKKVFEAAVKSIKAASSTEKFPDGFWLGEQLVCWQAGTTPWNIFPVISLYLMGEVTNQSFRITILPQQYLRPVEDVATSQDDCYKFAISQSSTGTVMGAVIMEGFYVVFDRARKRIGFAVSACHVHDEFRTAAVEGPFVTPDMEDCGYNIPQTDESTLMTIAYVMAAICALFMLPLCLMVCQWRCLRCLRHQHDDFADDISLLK

## C[C@H](NC(=O)Cc1cc(F)cc(F)c1)C(=O)N[C@H](C(=O)OC(C)(C)C)c1ccccc1 [DAPT, N-[N-(3,5-difluorophenacetyl-L-alanyl)]-S-phenylglycine t-butyl ester]
APP [1]
  accumulation of carboxyl-terminal APP fragments (APP CTF): stimulates; also recorded: promoted the accumulation
[2]
  proliferation of U-87 MG brain tumor cells: dose dependently inhibited the proliferation
  tumoricidal activity: did not display tumoricidal activity

## CC(C)C[C@@H](C=O)NC(=O)[C@H](CC(C)C)NC(=O)[C@@H](NC(=O)OCc1ccccc1)C(C)C [Z-VLL-CHO, N-benzyloxycarbony-val-leu-leucinal] (Cbz-Val-Leu-Leu-aldehyde)
[3]
  formation of capillary structures, overall: profoundly anti-angiogenic
APP [4]
  secretion of α-sAPP: stimulated
APP [4]; listed as Z-VVL-CHO
  secretion of α-sAPP: significantly inceases
[2]
  proliferation of U-87 MG brain tumor cells: dose dependently inhibited the proliferation
  tumoricidal activity: did not display tumoricidal activity
β-secretase; read-out: formation of Aβ42, IC50
  IC50: 2500 nM
β-secretase; read-out: formation of Aβtotal, IC50
  IC50: 700 nM
